Measurements published in patent US20260077069A1, “COMBINATIONS OF CONTRAST AGENTS” (BAYER AKTIENGESELLSCHAFT, priority 2022, published 2026).

Assay: Relaxivity measurements at 1.41 T in water and human plasma
Assay type: physicochemical
Details: 37° C., normalized to Gd
Protocol: Relaxivity measurements at 1.41 T were performed using a MiniSpec mq60 spectrometer (Bruker Analytik, Karlsruhe, Germany) operating at a resonance frequency of 60 MHz and a temperature of 37° C. The T1 relaxation times were determined using the standard inversion recovery (IR) method with a fixed relaxation delay of at least 5×T1. The variable inversion time (TI) was calculated automatically by the standard software of the MiniSpec mq60 (8 steps). The T2 measurements were performed by using a Carr-Purcell-Meiboom-Gill (CPMG) pulse sequence, applying a relaxation delay of at least 5×T1.
Each relaxivity measurement was performed using three different Gd concentrations (3 concentrations between 0.05 and 2 mM). The T1 and T2 relaxation times of the example compounds were measured in water and human plasma. Human plasma preparation: For each experiment fresh blood was taken from a volunteer using 10 mL citrate-tubes (Sarstedt S-Monovette 02.1067.001, 10 mL, Citrate). The 10 mL citrate-tubes were carefully inverted 10 times to mix blood and anticoagulant and centrifuged for 15 min at 1811 g at RT (Eppendorf, Centrifuge 5810R).
The relaxivities ri (where i=1, 2) were calculated based on the measured relaxation rates Ri in water and plasma:
where Ri(0) represent the relaxation rate of the respective solvent and CGd the concentration of the compound normalized to the Gadolinium. The Gadolinium concentrations of the investigated solutions were verified by Inductively Coupled Plasma Mass Spectrometry (ICP-MS Agilent 7500a, Waldbronn, Germany).

Row | Compound | r1 human plasma [L/mmol/s] | r1 water [L/mmol/s]
1 | CC(C(=O)NCC(=O)NCC(CNC(=O)CNC(=O)C(C)N1CCN(CC(=O)[O-])CCN(CC(=O)[O-])CCN(CC(=O)[O-])CC1)C(=O)NCCN(CCNC(=O)C(CNC(=O)CNC(=O)C(C)N1CCN(CC(=O)[O-])CCN(CC(=O)[O-])CCN(CC(=O)[O-])CC1)CNC(=O)CNC(=O)C(C)N1CCN(CC(=O)[O-])CCN(CC(=O)[O-])CCN(CC(=O)[O-])CC1)C(=O)CNC(=O)C(C)N1CCN(CC(=O)[O-])CCN(CC(=O)[O-])CCN(CC(=O)[O-])CC1)N1CCN(CC(=O)[O-])CCN(CC(=O)[O-])CCN(CC(=O)[O-])CC1.[Gd+3].[Gd+3].[Gd+3].[Gd+3].[Gd+3] (stereo not shown) [Compound 1] | 13.0 | 11.1
2 | CC(C(=O)NCC(=O)NCC(CNC(=O)CNC(=O)C(C)N1CCN(CC(=O)[O-])CCN(CC(=O)[O-])CCN(CC(=O)[O-])CC1)C(=O)NCCN(CCNC(=O)C(CNC(=O)CNC(=O)C(C)N1CCN(CC(=O)[O-])CCN(CC(=O)[O-])CCN(CC(=O)[O-])CC1)CNC(=O)CNC(=O)C(C)N1CCN(CC(=O)[O-])CCN(CC(=O)[O-])CCN(CC(=O)[O-])CC1)C(=O)C(CNC(=O)CNC(=O)C(C)N1CCN(CC(=O)[O-])CCN(CC(=O)[O-])CCN(CC(=O)[O-])CC1)CNC(=O)CNC(=O)C(C)N1CCN(CC(=O)[O-])CCN(CC(=O)[O-])CCN(CC(=O)[O-])CC1)N1CCN(CC(=O)[O-])CCN(CC(=O)[O-])CCN(CC(=O)[O-])CC1.[Gd+3].[Gd+3].[Gd+3].[Gd+3].[Gd+3].[Gd+3] (stereo not shown) [Compound 2] | 13.9 | 12.1
3 | C[C@H](C(=O)NCC(=O)N1CCN(C(=O)CNC(=O)[C@@H](C)N2CCN(CC(=O)[O-])CCN(CC(=O)[O-])CCN(CC(=O)[O-])CC2)CC(C(=O)NCCN(CCNC(=O)C2CN(C(=O)CNC(=O)[C@@H](C)N3CCN(CC(=O)[O-])CCN(CC(=O)[O-])CCN(CC(=O)[O-])CC3)CCN(C(=O)CNC(=O)[C@@H](C)N3CCN(CC(=O)[O-])CCN(CC(=O)[O-])CCN(CC(=O)[O-])CC3)C2)C(=O)C2CN(C(=O)CNC(=O)[C@@H](C)N3CCN(CC(=O)[O-])CCN(CC(=O)[O-])CCN(CC(=O)[O-])CC3)CCN(C(=O)CNC(=O)[C@@H](C)N3CCN(CC(=O)[O-])CCN(CC(=O)[O-])CCN(CC(=O)[O-])CC3)C2)C1)N1CCN(CC(=O)[O-])CCN(CC(=O)[O-])CCN(CC(=O)[O-])CC1.[Gd+3].[Gd+3].[Gd+3].[Gd+3].[Gd+3].[Gd+3] [Compound 5] | 14.3 | 13.0
4 | CC(C(=O)NCC(=O)N1CCN(C(=O)CNC(=O)C(C)N2CCN(CC(=O)[O-])CCN(CC(=O)[O-])CCN(CC(=O)[O-])CC2)CCN(C(=O)CNC(=O)C(C)N2CCN(CC(=O)[O-])CCN(CC(=O)[O-])CCN(CC(=O)[O-])CC2)CCN(C(=O)CNC(=O)C(C)N2CCN(CC(=O)[O-])CCN(CC(=O)[O-])CCN(CC(=O)[O-])CC2)CC1)N1CCN(CC(=O)[O-])CCN(CC(=O)[O-])CCN(CC(=O)[O-])CC1.[Gd+3].[Gd+3].[Gd+3].[Gd+3] (stereo not shown) [Compound 7] | 12.1 | 10.8
5 | CC(C(=O)NCC(=O)NCC(NC(=O)CNC(=O)C(C)N1CCN(CC(=O)[O-])CCN(CC(=O)[O-])CCN(CC(=O)[O-])CC1)C(=O)N1CC23CN(C(=O)C(CNC(=O)CNC(=O)C(C)N4CCN(CC(=O)[O-])CCN(CC(=O)[O-])CCN(CC(=O)[O-])CC4)NC(=O)CNC(=O)C(C)N4CCN(CC(=O)[O-])CCN(CC(=O)[O-])CCN(CC(=O)[O-])CC4)CC2(C1)CN(C(=O)C(CNC(=O)CNC(=O)C(C)N1CCN(CC(=O)[O-])CCN(CC(=O)[O-])CCN(CC(=O)[O-])CC1)NC(=O)CNC(=O)C(C)N1CCN(CC(=O)[O-])CCN(CC(=O)[O-])CCN(CC(=O)[O-])CC1)C3)N1CCN(CC(=O)[O-])CCN(CC(=O)[O-])CCN(CC(=O)[O-])CC1.[Gd+3].[Gd+3].[Gd+3].[Gd+3].[Gd+3].[Gd+3] (stereo not shown) [Compound 8] | 14.6 | 12.5
